According to PubChem BioAssay (NCI):
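Step 1: Grow cells in 96-well plates. Step 2: Expose to compound for 48 hours at 5 concentrations. Step 3: Interpolate endpoints linearly; if unreached, use highest concentration. At the GI50, growth is halved. TGI: total growth inhibition.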

Columns and labels:
Experiment in all cases: inhibition of tumour cell growth, NCI panel, 48 h
[1] = tested on: UO-31 renal
[2] = tested on: MDA-MB-435
[3] = tested on: IGROV1 ovarian
[4] = tested on: TK-10 renal
[5] = tested on: OVCAR-8 ovarian
[6] = tested on: HCT-116 colon
[7] = tested on: RPMI-8226 leukemia
[8] = tested on: HT29 colon
[9] = tested on: NCI-H226 lung
[10] = tested on: HCC-2998 colon

| Structure (SMILES) | TGI [1] [µM] | TGI [2] [µM] | TGI [3] [µM] | TGI [4] [µM] | TGI [5] [µM] | TGI [6] [µM] | TGI [7] [µM] | TGI [8] [µM] | TGI [9] [µM] | TGI [10] [µM] | GI50 [2] [µM] | GI50 [3] [µM] | GI50 [4] [µM] | GI50 [5] [µM] | GI50 [6] [µM] | GI50 [8] [µM] | GI50 [9] [µM] | GI50 [1] [µM] | GI50 [7] [µM] |
| --- | --- | --- | --- | --- | --- | --- | --- | --- | --- | --- | --- | --- | --- | --- | --- | --- | --- | --- | --- |
| O=C1c2ccccc2C(=O)c2c1c1cc(O)ccc1n2Cc1ccc(Cl)cc1Cl | 37.9 | 27.8 | 21.2 | 27.4 | 19.1 | 73.2 | 26.7 | 51 | 31.1 |  |  |  |  |  |  |  |  |  |  |
| CC(C)Oc1c(O)c2c3c(oc(=O)n3C=CC2c2ccccc2F)c1OC(C)C (stereo unspecified) | > 100 | 70 | > 100 | > 100 | > 100 | 66.7 | 51.9 | 54.1 | > 100 |  |  |  |  |  |  |  |  |  |  |
| Cc1cccc2ns[s+]c12 | > 100 |  | > 100 | > 100 | > 100 | 37.7 | > 100 | > 100 | > 100 | > 100 |  |  |  |  |  |  |  |  |  |
| C[Si](C)(C)C1=C2C(=O)c3ccccc3C(=O)C2=C([Si](C)(C)C)[C@@H]2CCCC[C@H]12 | > 100 | > 100 | > 100 | > 100 |  | > 100 | > 100 |  |  | > 100 |  |  |  |  |  |  |  |  |  |
| COc1cc(NS(C)(=O)=O)ccc1N1Cc2cnc3ccc4[nH]ccc1c4c23 | > 100 | > 100 | > 100 | > 100 | > 100 | > 100 | 46.8 | > 100 | 93.5 |  |  |  |  |  |  |  |  |  |  |
| CCCCCCc1cc2cc(C(=O)Nc3cccc(C(F)(F)F)c3)c(=N)oc2cc1O | > 29.2 | 5.18 | 11.1 | 46.6 | 3.72 | 4.57 | > 20.3 | > 100 | 3.52 | 15.8 |  |  |  |  |  |  |  |  |  |
| Nc1nc(NC(=O)C2=NS(=O)(=O)c3cc(S(N)(=O)=O)c(Cl)cc3N2)n[nH]1 | > 100 |  | > 100 | > 100 |  | > 100 | > 100 | > 100 | > 100 | > 100 |  |  |  |  |  |  |  |  |  |
| CC(C)(C)OC(=O)NCCNC(=O)OCc1ccccc1 | > 100 | > 100 | > 100 | > 100 | > 100 |  | > 100 | > 100 | > 100 | > 100 |  |  |  |  |  |  |  |  |  |
| CCOC(=O)C1(C/C=C\CBr)CCCCCCC1=O (stereo unspecified) | > 100 | > 100 | > 100 | > 100 | > 100 | > 100 |  | > 100 | > 100 |  |  |  |  |  |  |  |  |  |  |
| COC(=O)C1(C(=O)OC)CC2=C(S(=O)(=O)c3ccccc3)C[C@@H](C#N)[C@H]2C1 | > 100 | > 100 | > 100 | > 100 | > 100 | > 100 |  | > 100 | > 100 | 31.2 |  |  |  |  |  |  |  |  |  |
| COc1ccc2c(c1)CCC1C2CCC2(C)C1CC[C@@]2(O)CNC(=O)/C=C/c1ccc(O)c(O)c1 (stereo partly specified) |  | 19.2 | 3.37 | 9.81 | > 100 | 19.2 |  | 4.78 | 35.3 |  | 2.86 | 0.937 | 2.52 | 4.13 | 2.95 | 1.93 | 9.76 |  |  |
| COc1cccc2c(NNc3ccc(Cl)cc3)c3ccc([N+](=O)[O-])cc3nc12 | 37.9 | > 100 |  | 25.8 |  | 20.3 | > 100 | 34.8 | 36.8 | 53 |  |  |  |  |  |  |  |  |  |
| CC(C)CCC[C@@H](C)[C@H]1CC[C@H]2[C@@H]3CC=C4CC(OCCCCN(O)CCCSC5OC(CO)C(O)C(O)C5O)CC[C@]4(C)[C@H]3CC[C@]12C (stereo partly specified) | > 100 |  | 50 | > 100 | > 100 | > 100 | > 100 | > 100 |  |  |  |  |  |  |  |  |  |  |  |
| CC1(C)CC(=O)C2=C(C1)OC1=C(CC(C)(C)CC1=O)C2c1ccccc1Cl (stereo unspecified) | 3.67 | > 100 | > 100 |  | > 100 | > 100 | > 100 | > 100 | > 100 | > 100 |  |  |  |  |  |  |  |  |  |
| COc1cc2c(oc(=O)c3c4oc([Si](C)(C)C)cc4cc(OC)c23)c2cccc(O)c12 | > 100 |  | > 100 | > 100 | > 100 | > 100 | > 100 | > 100 | > 100 | > 100 |  |  |  |  |  |  |  |  |  |
| O=S(=O)(CC#CCS(=O)(=O)c1ccccc1)c1ccccc1 | 2.65 | 3.83 | 2.94 | 7.61 | 5.16 | 2.39 |  | 27.7 | 34.7 | 35.8 |  |  |  |  |  |  |  |  |  |
| O=S(=O)(N1CCCCN(S(=O)(=O)C(F)(F)F)CCCN(S(=O)(=O)C(F)(F)F)CCCN(S(=O)(=O)C(F)(F)F)CCCCN(S(=O)(=O)C(F)(F)F)CCCN(S(=O)(=O)C(F)(F)F)CCC1)C(F)(F)F | > 100 | > 100 | > 100 | > 100 | > 100 | > 100 |  | > 100 | > 100 | > 100 |  |  |  |  |  |  |  |  |  |
| CCC1OC(=O)C(C)C(OC2CC(C)(O)C(O)C(C)O2)C(C)C(O)C(C)(O)CC(C)C(=O)C(C)C(O)C1C (stereo unspecified) | > 300 |  | > 300 |  | > 300 | > 300 | > 300 | > 300 | > 300 | > 300 |  |  |  |  |  |  |  |  |  |
| CC(C)OP(=O)(OC(C)C)c1ncn(-c2ccc([N+](=O)[O-])cc2)n1 | > 100 |  | > 100 | > 100 | > 100 | > 100 | > 100 | > 100 | > 100 | > 100 |  |  |  |  |  |  |  |  |  |
| C=C(Cl)C(Cl)(CBr)CCC(Cl)C(C)C (stereo unspecified) | 7.4 | 20.6 | 30.8 | 3.12 | > 100 | 5.96 |  | 0.955 | > 65.5 | 15.2 |  |  |  |  |  |  |  |  |  |
| Nc1cc(N)c2nc(-c3ccccc3)c(Sc3ccc(F)cc3)nc2c1 | > 100 | 32.9 | > 100 | 42.6 | 34.9 | 28.3 | 81.5 | 45.9 | 46.4 |  | 16.3 | 25 | 17.4 | 16.7 | 14.7 | 17.8 | 19 | 32 | 28.3 |
